Measured values published in the NIST ThermoML archive (doi:10.1016/j.jct.2014.05.005).
Numbers after ± are expanded uncertainties.

Key:
[1] = for mass density: 298.15 K, 101.33 kPa, Liquid, Vibrating tube method; for Normal melting temperature: Crystal, DTA
[2] = Molar enthalpy of transition or fusion; details: Crystal; DSC

mass density [1] | Normal melting temperature [1] | Molar enthalpy of transition or fusion [2] | Compound
785.12 ± 1 kg/m3 | – | – | CCO [ethanol]
822.99 ± 1 kg/m3 | – | – | CCCCCCCCO [octan-1-ol]
– | 162.7 ± 0.4 °C | 7.8 ± 0.17 kcal/mol | Cn1c(=O)c2c(ncn2CCO)n(C)c1=O [7-(2-hydroxyethyl)-1,3-dimethylxanthine]
– | 271.4 ± 0.4 °C | 7.23 ± 0.158 kcal/mol | Cn1c(=O)c2[nH]cnc2n(C)c1=O [3,7-dihydro-1,3-dimethyl-1H-purine-2,6-dione]
